Laboratory results: publication PMC3013012 (The Journal of Biological Chemistry, 2010)
Square brackets hold non-standard residues; d marks the D form. Peptide text beside a SMILES is read from it. Lys(Me3) = C[N+](C)(C)CCCC[C@H](N)C(=O)O; Lys(Me2) = CN(C)CCCC[C@H](N)C(=O)O

How the values were obtained:
human Cbx7 chromodomain = molecular target: T1, human Cbx7 chromodomain (Homo sapiens, UniProt O95931); assay: Fluorescence polarization peptide binding
T1 sequence (O95931 8-62): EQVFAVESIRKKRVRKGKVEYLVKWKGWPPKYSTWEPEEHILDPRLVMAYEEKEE

human Cbx8 chromodomain = molecular target: T2, human Cbx8 chromodomain (Homo sapiens, UniProt Q9HC52); assay: Fluorescence polarization peptide binding
T2 sequence (Q9HC52 8-61): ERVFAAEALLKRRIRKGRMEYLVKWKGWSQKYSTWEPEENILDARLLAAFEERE

Row | Compound | Kd (human Cbx7 chromodomain) [µM] | Kd (human Cbx8 chromodomain) [µM]
1 | CC[C@H](C)[C@H](NC(=O)CNC(=O)[C@@H](N)Cc1c[nH]cn1)C(=O)N[C@@H](C)C(=O)N[C@H](C(=O)N[C@@H](CCCC[N+](C)(C)C)C(=O)N[C@@H](CO)C(=O)N[C@H](C(=O)N[C@@H](CC(N)=O)C(=O)O)[C@@H](C)O)[C@@H](C)CC [IAIK(1178)S] (H-HGIAI[Lys(Me3)]STN-OH) | 5 ± 0.8 | –
2 | CC[C@H](C)[C@H](NC(=O)CNC(=O)[C@H](Cc1c[nH]cn1)NC(=O)[C@@H](NC(=O)[C@H](CO)NC(=O)[C@H](CCCCN(C)C)NC(=O)[C@H](CC(C)C)NC(=O)[C@H](C)NC(=O)[C@H](Cc1ccccc1)NC(=O)CNC(=O)[C@H](CCCNC(=N)N)NC(=O)[C@@H](NC(=O)[C@H](CO)NC(=O)[C@H](CCCCN(C)C)NC(=O)[C@@H](NC(=O)[C@H](C)NC(=O)[C@@H](NC(=O)[C@H](CCC(N)=O)NC(=O)[C@@H](N)CCCNC(=N)N)C(C)C)C(C)C)[C@@H](C)O)[C@@H](C)O)C(=O)N[C@@H](C)C(=O)N[C@H](C(=O)N[C@@H](CCCCN(C)C)C(=O)N[C@@H](CO)C(=O)N[C@H](C(=O)N[C@@H](CC(N)=O)C(=O)O)[C@@H](C)O)[C@@H](C)CC [Kme2(1162,1170,1178)] (H-RQVAV[Lys(Me2)]STRGFAL[Lys(Me2)]STHGIAI[Lys(Me2)]STN-OH) | 15 ± 0.5 | 180 ± 80
3 | CC[C@H](C)[C@H](NC(=O)CNC(=O)[C@H](Cc1c[nH]cn1)NC(=O)[C@@H](NC(=O)[C@H](CO)NC(=O)[C@H](CCCC[N+](C)(C)C)NC(=O)[C@H](CC(C)C)NC(=O)[C@H](C)NC(=O)[C@H](Cc1ccccc1)NC(=O)CNC(=O)[C@H](CCCNC(=N)N)NC(=O)[C@@H](NC(=O)[C@H](CO)NC(=O)[C@H](CCCC[N+](C)(C)C)NC(=O)[C@@H](NC(=O)[C@H](C)NC(=O)[C@@H](NC(=O)[C@H](CCC(N)=O)NC(=O)[C@@H](N)CCCNC(=N)N)C(C)C)C(C)C)[C@@H](C)O)[C@@H](C)O)C(=O)N[C@@H](C)C(=O)N[C@H](C(=O)N[C@@H](CCCC[N+](C)(C)C)C(=O)N[C@@H](CO)C(=O)N[C@H](C(=O)N[C@@H](CC(N)=O)C(=O)O)[C@@H](C)O)[C@@H](C)CC [Kme3(1162,1170,1178)] (H-RQVAV[Lys(Me3)]STRGFAL[Lys(Me3)]STHGIAI[Lys(Me3)]STN-OH) | 1.2 ± 0.2 | 6 ± 2
